According to patent US4659734A, “Olinecarboxylic acid derivatives” (Nippon Shinyaku Co., Ltd., priority 1983, dated 1987):
In brackets after ≈: the same amount, converted by molar mass.

Tests used:
[1] = Acute toxicity; conditions: mouse, in vivo; oral, groups of ten ddY male mice; read-out: 50% Lethal Doses (LD50)
Method: Groups of ten ddY strain male mice (body weights: 20±1 grams) of the test compound were orally administered to determine the LD50. There was […] in which many mice died when the dose was 2000 mg/kg or less.

[2] = Blood serum concentration, disc method; format: in vivo, ddY strain mice
Method: In this experiment, ddY strain mice (male; body weight 30±2 grams) were used. Sixty mg/kg of the compound of Example 22b were given per os. The blood concentration was calculated from calibration curves obtained by the disc method using Escherichia coli NIHJ strain as tested bacteria and diluting the test compound of mice serum.

[3] = test system: Staphylococcus aureus Smith; assay: Mouse intraperitoneal infection, survival after one week; format: in vivo, ddY strain mice; conditions: po, 3 × 10^6 per mouse, one dose per os 2 h after infection
Method: (§1) ddY--Strain mice (male; body weight 20±1 grams) of SPF were innoculated with the bacteria set forth in Table 2 by administration of a supension of the bacterial in 4% mucin solution into the abdominal cavity. A compound of the invention was given one time per os two hours after the infection, and, from the survival rate after one week. 50% effective doses (ED50) were calculated by the Behrens-Karber method.

[4] = test system: Pseudomonas aeruginosa E-2; assay: as above; format: in vivo, ddY strain mice; conditions: E2, po; Pseudomonas aeruginosa E-2, 2 × 10^5 per mouse; one dose per os 2 h after infection; Behrens-Karber
Method: as §1

[5] = test system: Proteus mirabilis 181; assay: as above; format: in vivo, ddY strain mice; conditions: po; Proteus mirabilis 181, 2 × 10^7 per mouse; one dose per os 2 h after infection
Method: as §1

[6] = test system: Streptococcus pyogenes S-23; assay: Minimum growth inhibiting concentration, Japan Chemotherapeutic Society method; format: cell-based; conditions: S23; Streptococcus pyogenes S-23, Gram +; 5% horse blood added agar medium; read-out: Minimum Growth Inhibiting Concn
Method: (§2) The Antibacterial activity of the compounds of Examples 14, 13, 22b, 21 and 15 was determined in accordance with the method of Japan Chemotherapeutic Society (cf. Nippon Kagaku Ryoho Gakkai Shi, volume 29, number 1, pages 76 to 79, 1981) and the results are reported in Table 1, which follows. | *5% Horse blood added agar medium for sensitivity measurement being used.

[7] = test system: Streptococcus pneumoniae Type I; assay: as above; format: cell-based; conditions: Gram +, 5% horse blood added agar medium, read-out: Minimum Growth Inhibiting Concn
Method: as §2

[8] = test system: Bacillus subtilis ATCC 6633; assay: as above; format: cell-based; conditions: ATCC6633; Bacillus subtilis ATCC 6633, Gram +; 5% horse blood added agar medium; read-out: Minimum Growth Inhibiting Concn
Method: as §2

In the case of `Cc1csc2c(C(=O)O)c(=O)c3cc(F)c(N4CCN(C)CC4)cc3n12` [Example 22b, 7-fluoro-1-methyl-8-(4-methyl-1-piperazinyl)-5-oxo-5H-thiazolo(3,2-a)-quinoline-4-carboxylic acid], the LD50 [1] is reported as over 2000 mg/kg, the concentration at 0.25 h ([2]; mouse, serum, po, 0.25 hours, 60 mg/kg per os, average ± standard error) is reported as 3400 ± 820 ng/mL and the concentration at 0.5 h ([2]; mouse, serum, po, 0.5 hours, 60 mg/kg per os, average ± standard error) is reported as 5400 ± 320 ng/mL. It also gave a concentration at 1 h ([2]; mouse, serum, po, 1 hour, 60 mg/kg per os, average ± standard error) of 4200 ± 700 ng/mL, a concentration at 2 h ([2]; mouse, serum, po, 2 hours, 60 mg/kg per os, average ± standard error) of 3300 ± 370 ng/mL and a concentration at 4 h ([2]; mouse, serum, po, 4 hours, 60 mg/kg per os, average ± standard error) of 2500 ± 230 ng/mL. The “blood concentration (in words)” value ([2]; oral, mice) was “promptly gave high and sustained blood concentrations when administered orally”, the ED50 [3] was 2.4 mg/kg and the ED50 [4] was 13.1 mg/kg. The ED50 [5] was 13 mg/kg, the MIC [6] was 0.2 µg/mL (≈ 0.533 µM) and the MIC [7] was 0.39 µg/mL (≈ 1.04 µM). It also gave an MIC [8] of 0.0008 µg/mL (≈ 0.00213 µM).
